Data published in patent US20080027145A1, “Therapeutic Molecules and Methods for Generating and/or Selecting Same” (priority 2004, published 2008).
Entries after “also recorded” stand apart in the source; their conditions may differ. Read-outs that look alike come from different tables or passages of the source. Ends that are not written are not given here.

Key:
[1] = system: pro-survival proteins (Bcl-2, Bcl-xL, Bcl-w, Mcl-1, A1); test: Solution competition assay, statements spanning several pro-survival proteins; type: binding, human and mouse; details: for binding preference among pro-survival proteins: Bcl-2, Bcl-xL, Bcl-w, Mcl-1, A1
Method: (§1) The relative affinities of BH3 peptides for pro-survival Bcl-2 proteins were assessed by comparing their abilities to compete with immobilized ^wtBimBH3 peptide for binding to Bcl-2-like proteins (Wilson-Annan et al., Supra). A fixed sub-saturating amount (10 nM) of a pro-survival Bcl-2 protein was incubated with varying amounts of competitor BH3 peptide in HBS for >2 hr on ice. The mixtures were then injected over a sensor chip containing a channel bearing mouse ^wtBimBH3 and a control channel with mouse ^4EBimBH3 immobilized. The baseline response (control channel) was subtracted to obtain the absolute binding response. Taking the response for the pro-survival protein alone as the maximal response (100%), the relative residual binding (%) in the presence of increasing amounts of competitor peptides at a given injection time point (430 s) was then calculated. […] Theoretically, IC50=[A]/2+KD, where [A] is the analyte concentration.
(§2) Some of recombinant proteins (Bcl-2, Bcl-xL, A1) studied contain cysteine residues but the behavior of Bcl-2 or Bcl-xL was not affected by dithiothreitol (DTT).
(§3) To assess if other BH3 peptides bind pro-survival proteins similarly, we directly compared their binding affinities in solution using a competitive binding assay. In such assays, the quality and absolute quantity of target proteins are less critical than in direct binding, and solution binding precludes the steric hindrance encountered with some immobilized peptides. FIG. 1C illustrates the approach: pre-incubation of Bcl-xL in solution with increasing amounts of BikBH3 reduced its binding to ^wtBimBH3 (FIG. 1D). From the attenuation in binding, the IC50 (competitor peptide concentration that halves binding) of BikBH3 can be calculated (FIG. 1E). As the IC50 values reflect relative binding affinities (see Experimental Procedures), we used this assay to compare the binding affinities of eight BH3 peptides (Table 3) to the five pro-survival proteins. […] Their binding properties fell into several classes (FIG. 2B and FIG. 4). […] Contrary to the prevailing view, the pro-survival proteins also had unique patterns for BH3 binding: Bcl-xL behaved like Bcl-w, with Bcl-2 more distinct, whereas Mcl-1 and A1 formed a separate group (FIG. 2B).

[2] = system: mouse embryonic fibroblasts (MEFs); test: Long-term colony assay of retrovirally infected MEFs; type: cell-based; details: colonies after 6 days
Method: FIG. 7 is a graphical representation showing that BH3-only proteins that bind selective targets have weak killing activity. (A) The affinities of BH3-only peptides for pro-survival proteins (tabulated in FIG. 3A) were inversely plotted to facilitate comparison of the patterns of BH3 binding. […] Immortalized 3T9 MEFs were infected with retroviruses expressing only GFP (control), or one of the BH3-only proteins and GFP. The viability of the infected (GFP^+ve) cells was determined by PI exclusion 24 hours after infection. The histograms represent means±1SD of at least 3 experiments. […] The filter was probed with a rat monoclonal anti-FLAG antibody. *Degradation product of Mcl-1. […] Viability of MEFs infected with retroviruses encoding the indicated proteins (GFP^+ve) was analyzed 24 hours after infection. The histograms represent means±1SD of at least 3 experiments. (E) Long-term survival of MEFs infected with BH3 expressing retroviruses. One hundred retrovirally-infected cells were plated and the absolute number of GFP^+ve colonies formed after 6 days scored. […] The data represent the average number of GFP^+ve colonies formed±1SD from at least 3 experiments. […] Viability of the infected (GFP^+ve) cells was scored 24 hours after infection (FIGS. 7A, 7B) and in long-term colony assays (FIG. 7E).

[3] = system: mouse embryonic fibroblasts (MEFs); test: Killing of MEFs after retroviral expression, viability 24 hours after infection; type: cell-based; details: retroviral expression, 24 hours after infection
Method: FIG. 7 is a graphical representation showing that BH3-only proteins that bind selective targets have weak killing activity. (A) The affinities of BH3-only peptides for pro-survival proteins (tabulated in FIG. 3A) were inversely plotted to facilitate comparison of the patterns of BH3 binding. […] Immortalized 3T9 MEFs were infected with retroviruses expressing only GFP (control), or one of the BH3-only proteins and GFP. The viability of the infected (GFP^+ve) cells was determined by PI exclusion 24 hours after infection. The histograms represent means±1SD of at least 3 experiments. […] The filter was probed with a rat monoclonal anti-FLAG antibody. *Degradation product of Mcl-1. […] Viability of MEFs infected with retroviruses encoding the indicated proteins (GFP^+ve) was analyzed 24 hours after infection. The histograms represent means±1SD of at least 3 experiments. (E) Long-term survival of MEFs infected with BH3 expressing retroviruses. One hundred retrovirally-infected cells were plated and the absolute number of GFP^+ve colonies formed after 6 days scored. […] The data represent the average number of GFP^+ve colonies formed±1SD from at least 3 experiments. To assess the biological relevance of the selective binding, retroviral delivery was used to compare the ability of different BH3-only proteins to kill wild-type mouse embryonic fibroblasts (MEFs). To monitor expression of the introduced gene, a vector (pMIG) in which its expression is coupled via an internal ribosomal entry site (IRES) to that of green fluorescent protein (GFP) was used (Van Parijs et al., Immunity 11:281-288, 1999). The cells were efficiently infected (>90%) and the introduced BH3-only proteins were comparably expressed. Viability of the infected (GFP^+ve) cells was scored 24 hours after infection (FIGS. 7A, 7B) and in long-term colony assays (FIG. 7E). […] Thus, the neutralization of Mcl-1 by Noxa should be complemented by co-expression of a BadBH3 to neutralize Bcl-2 and Bcl-xL in MEFs (FIG. 8A).

Bcl-xL = target: T1, Bcl-xL (Homo sapiens, UniProt Q07817); test: Solution competition assay (competition with immobilized wtBimBH3, biosensor); type: binding; details: for fold tighter than wild-type peptide: IC50 ratio to wild-type Noxa BH3; for increase in binding to Bcl-xL: versus wt NoxaBH3
T1 construct: Human Bcl-xL (Acc. no. NP_612815; residues 1-209); GST (N, cleaved yes); made in house
T1 sequence (Q07817 1-209): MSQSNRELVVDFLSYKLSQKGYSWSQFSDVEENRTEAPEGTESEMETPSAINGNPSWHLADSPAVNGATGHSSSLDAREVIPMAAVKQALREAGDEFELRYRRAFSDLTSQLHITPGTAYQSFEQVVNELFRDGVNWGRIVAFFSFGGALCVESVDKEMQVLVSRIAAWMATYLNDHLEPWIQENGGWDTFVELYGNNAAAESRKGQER
Method: as §1, §2, §3

Bcl-2 = target: T2, Bcl-2 (Homo sapiens, UniProt P10415); test: as above; type: binding; details: for binding to Bcl-2: Noxa mutant peptides
T2 construct: Human Bcl-2 (Acc. no. NP_000624; residues 1-217); made in house
T2 sequence (P10415 1-217): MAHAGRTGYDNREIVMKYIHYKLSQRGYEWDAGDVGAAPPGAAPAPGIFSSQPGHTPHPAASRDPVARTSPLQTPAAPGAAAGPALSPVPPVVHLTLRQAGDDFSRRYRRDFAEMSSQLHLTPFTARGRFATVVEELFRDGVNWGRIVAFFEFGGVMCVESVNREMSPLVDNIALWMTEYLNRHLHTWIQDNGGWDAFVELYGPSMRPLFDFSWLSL
Method: as §1, §2, §3

Mcl-1 = target: T3, Mcl-1 (Mus musculus, UniProt P97287); test: as above; type: binding; details: versus wt NoxaBH3
T3 construct: mouse Mcl-1 (Acc. no. NP_031588; residues 152-308); GST (N, cleaved yes); made in house
T3 sequence (P97287 152-308): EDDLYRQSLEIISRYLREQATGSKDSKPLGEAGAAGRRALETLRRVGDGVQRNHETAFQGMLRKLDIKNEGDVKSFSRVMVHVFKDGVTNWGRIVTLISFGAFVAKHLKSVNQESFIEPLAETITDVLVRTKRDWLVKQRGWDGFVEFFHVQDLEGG
Method: as §1, §2, §3

A1 ΔC20 = target: T4, A1 ΔC20 (Mus musculus, UniProt Q07440); test: Direct binding to immobilized BH3 peptide, Biacore biosensor; details: BadBH3 or NoxaBH3 immobilized chip
T4 construct: mouse A1 (Acc. no. NP_033872; residues 1-152); GST (N, cleaved yes); made in house
T4 sequence (Q07440 1-152): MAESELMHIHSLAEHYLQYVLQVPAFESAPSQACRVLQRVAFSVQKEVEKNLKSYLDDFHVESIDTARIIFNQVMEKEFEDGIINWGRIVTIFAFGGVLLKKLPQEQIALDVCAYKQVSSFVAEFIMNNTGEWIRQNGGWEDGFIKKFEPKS
Method: (§4) Recombinant human Bcl-xL ΔC24, mouse Mcl-1 ΔN151 ΔC23 and mouse A1 ΔC20 were expressed as GST fusion proteins and cleaved off Glutathione Sepharose columns as described (Day et al., Cell Death Differ 6:1125-1132, 1999; Hinds et al., EMBO J 22:1497-1507, 2003).
(§5) Affinity measurements were performed at room temperature on a Biacore 3000 biosensor (Biacore) with HBS (10 mM HEPES pH 7.2, 150 mM NaCl, 3.4 mM EDTA, 0.005% Tween 20) as the running buffer. Mouse 26-mer ^wtBimBH3, ^4EBimBH3 mutant, BadBH3, NoxaBH3 or control irrelevant peptides were immobilized onto CM5 sensor chips using amine-coupling chemistry (Wilson-Annan et al., Supra). To assess the binding affinities of pro-survival Bcl-2-like proteins for BimBH3 directly, the proteins were directly injected into the sensor chip at 20 μl/min. Residual bound proteins were desorbed with 50 mM NaOH or 6 M GuHCl (pH 7.2), followed by two washes with running buffer. Binding kinetics were derived from sensorgrams, following subtraction of baseline responses, using BIA evaluation software (version 3, Biacore) (Wilson-Annan et al., Supra).
(§6) The binding constants of the pro-survival molecules for ^wtBimBH3, immobilized on sensor chip, were determined using biosensor experiments as described in Hinds et al., Supra; Wilson-Annan et al., Supra.

Mcl-1 ΔN151 ΔC23 = target: T5, Mcl-1 ΔN151 ΔC23 (Mus musculus, UniProt P97287); test: as above; details: BadBH3 or NoxaBH3 immobilized chip
T5 construct: mouse Mcl-1 (Acc. no. NP_031588; residues 152-308); GST (N, cleaved yes); made in house
T5 sequence (P97287 152-308): as the sequence (P97287 152-308) above
Method: as §4, §5, §6

Bcl-w = target: T6, Bcl-w (Homo sapiens, UniProt Q92843, A128E/C29S); test: Solution competition assay (competition with immobilized wtBimBH3, biosensor); type: binding
T6 construct: human Bcl-w (Acc. no. NP_004041; residues 1-164; C29S A128E); made in house
T6 sequence (Q92843 1-164 C29S/A128E): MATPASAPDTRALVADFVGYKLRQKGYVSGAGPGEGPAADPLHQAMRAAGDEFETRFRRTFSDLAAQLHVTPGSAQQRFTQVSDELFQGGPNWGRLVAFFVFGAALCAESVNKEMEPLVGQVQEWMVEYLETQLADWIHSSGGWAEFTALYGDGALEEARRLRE
Method: as §1, §2, §3

[4] = competitor peptide vs immobilized wtBimBH3, read-out: IC50 for Bcl-xL

BidBH3: human Bid BH3 peptide residues 81-104, DIIRNIARHLAQVGDSMDRSIPPG
binding preference among pro-survival proteins [1]: preferred Bcl-xL, Bcl-w and A1 over Bcl-2 or Mcl-1

BikBH3: human Bik BH3 peptide residues 51-75, MEGSDALALRLACIGDEMDVSLRAP
binding preference among pro-survival proteins [1]: preferred Bcl-xL, Bcl-w and A1 over Bcl-2 or Mcl-1

Bims: Bim isoform, the most potent, expressed from retrovirus in MEFs
long-term survival, GFP+ve colonies [2]: failed to generate colonies; also recorded: No colonies | killing of MEFs [3]: soon died

BmfBH3: mouse Bmf BH3 peptide residues 128-151, HRAEVQIARKLQCIADQFHRLHTQ
binding preference among pro-survival proteins [1]: showed similar preferences

H-PAELEVECATQLRRFGDELNFRQKLL-OH [Noxa (18-43) mt1]
fold tighter than wild-type peptide (Bcl-xL): at least 17 fold | increase in binding to Bcl-xL (Bcl-xL): more than 20 fold | binding to Bcl-2 (Bcl-2): remained weak

H-PAELEVECATQLRRIGDELNFRQKLL-OH [Noxa (18-43) mt3]
IC50 (Bcl-xL; [4]): 0.11 µM | Mcl-1 binding (Mcl-1): slightly improved | binding to Bcl-2 (Bcl-2): remained weak

H-PAELEVECATQLRRIGDKLNFRQKLL-OH [Noxa (18-43) mt2]
fold tighter than wild-type peptide (Bcl-xL): at least 90 fold | increase in binding to Bcl-xL (Bcl-xL): more than 100 fold | binding to Bcl-2 (Bcl-2): remained weak

Hrk: BH3-only protein Hrk expressed from retrovirus in MEFs
killing of MEFs [3]: much less potent killers

PAELEVECATQLRRFGDKLNFRQKLL [Noxa (18-43)]
binding preference among pro-survival proteins ([1]; listed as Noxa BH3): selectively binds Mcl-1 and A1 | binding preference among pro-survival proteins ([1]; listed as NoxaBH3): highly selective for Mcl-1 and A1 | IC50 ([1]; Mcl-1 and A1): nM range | binding of A1 to immobilized peptide (A1 ΔC20): bound | binding of Mcl-1 to immobilized peptide (Mcl-1 ΔN151 ΔC23): bound | IC50 (Bcl-xL; Bcl-xL, b59-60 do not name the target, values match Table 4, read-out: IC50): > 100 µM | IC50 (Bcl-xL; [4]): > 100 µM | IC50 (Bcl-w; Bcl-w, one of 'the others', read-out: IC50): > 100 µM | IC50 (Bcl-w; competitor peptide vs immobilized wtBimBH3, read-out: IC50 for Bcl-w): > 100 µM | IC50 (Bcl-2; Bcl-2, one of 'the others'): > 100 µM

PumaBH3: human Puma BH3 peptide residues 130-155, EEQWAREIGAQLRRMADDLNAQYERR
binding preference among pro-survival proteins [1]: comparable affinities for all the pro-survival proteins
